US8158657B2, “Heterocycles substituted pyridine derivatives and antifungal agent containing thereof” (Eisai R&D Management Co., Ltd., priority 2005, dated 2012)
Converted amounts (≈) assume the structure as drawn.

What was measured:
[1] = system: C. albicans CAF2-1 strain; experiment: Anti-Candida activity, MIC measurement; format: cell-based; conditions: CAF21STRAIN, C. albicans CAF2-1, RPMI1640, 42-48 hours at 35° C., visual inspection, read-out: Anti-Candida Activity (minimum inhibitory concentration, MIC)
Outline: (§1)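 C. albicans CAF2-1 was grown 48 h at 30° C. in SDB and diluted in RPMI1640 to 1.2×10^3 cells/mL. Frozen A. fumigatus Tsukuba was diluted to 4.5×10^3 cells/mL. Compounds, two-fold serially diluted in DMSO from 2.5 mg/mL, were cultured aerobically with fungi for 42-48 h at 35° C.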

[2] = system: A. fumigatus Tsukuba strain; experiment: Anti-Aspergillus activity, MIC measurement; format: cell-based; conditions: RPMI1640, 42-48 hours at 35° C., visual inspection, read-out: Anti-Aspergillus Activity (minimum inhibitory concentration, MIC)
Outline: as §1

[3] = system: C. albicans E81022 strain; experiment: Experimental systemic candidal infection model in mice; format: in vivo; conditions: peroral, 3 times every 4 hours, female ICR mice, observed until 14 days after infection
Protocol: A standing culture of C. albicans E81022 strain was carried out for 48 hours at 30° C. in sabouraud dextrose agar medium (SDA), the recovered fungal cells were suspended in sterilized physiological saline. By counting the fungal number on cytometry plate, the suspension was diluted to 2×10^7 cells/mL with sterilized physiological saline to serve fungal inoculum.
The fungal inoculum was used in the amounts of 0.2 mL to inoculate 4.5 to 5.5 week-old female ICR mice in the tail vein (4×10^6 cells/mouse).
From 0.5 to 1 hour after fungal inoculation, 0.2 mL of agent solution (dissolved or suspended in sterilized physiological saline containing 6.5% dimethyl sulfoxide and 3.5% Tween 80) was administered into the stomach using a peroral probe, 3 times every 4 hours. The agent concentration was 2.5 mg/kg or 10 mg/kg, and the number of animals in one group was 5 animals.
The protective effect was determined by observing life/death until 14 days after infection and calculating the mean survival days.

SMILES	MIC [1] [µg/mL]	MIC [2] [µg/mL]	Mean Survival Days ([3]; 2.5 mg/kg) [days]	Mean Survival Days ([3]; 10 mg/kg) [days]
Cc1ccnc(COc2ccc(Cc3cc(-c4cccnc4N)on3)cc2)c1 [Example 11, 3-(3-(4-(4-Methyl-pyridin-2-ylmethoxy)-benzyl)-isoxazol-5-yl)-pyridin-2-ylamine]	0.1 (≈ 0.269 µM)	0.39 (≈ 1.05 µM)	8.2	13.6
Nc1ncccc1-c1cc(Cc2ccc(OCc3ccccc3)nc2)no1 [Example 12, 3-(3-(6-Benzyloxy-pyridin-3-ylmethyl)-isoxazol-5-yl)-pyridin-2-ylamine]	0.1 (≈ 0.279 µM)	0.1 (≈ 0.279 µM)	10.8	14.0
Nc1ccc(-c2cc(Cc3ccc(OCc4ccccc4)cc3)no2)c(N)n1 [Example 13, 3-(3-(4-Benzyloxy-benzyl)-isoxazol-5-yl)-pyridin-2,6-diamine]	0.2 (≈ 0.537 µM)	0.1 (≈ 0.269 µM)	13.8	14.0
Nc1ccc(-c2cc(Cc3ccc(COc4ccccn4)cc3)no2)c(N)n1 [Example 14]	0.39 (≈ 1.04 µM)	0.39 (≈ 1.04 µM)	13.4	14.0
Cc1cccc(OCc2ccc(Cc3cc(-c4ccc(N)nc4N)on3)cc2)n1 [Example 15, 3-(3-(4-(6-Methyl-pyridin-2-yloxymethyl)-benzyl)-isoxazol-5-yl)-pyridin-2,6-diamine]	0.2 (≈ 0.516 µM)	0.39 (≈ 1.01 µM)	10.8	12.6
CCCCOCc1ccc(Cc2cc(-c3ccc(N)nc3N)on2)cc1 [Example 16, 3-(3-(4-Butoxymethyl-benzyl)-isoxazol-5-yl)-pyridin-2,6-diamine]	0.39 (≈ 1.11 µM)	0.39 (≈ 1.11 µM)	4.8	12.8
Nc1ccc(-c2cc(Cc3ccc(Oc4ccccc4)cc3)no2)c(N)n1 [Example 17, 3-(3-(4-Phenoxy-benzyl)-isoxazol-5-yl)-pyridin-2,6-diamine]	0.78 (≈ 2.18 µM)	0.2 (≈ 0.558 µM)	8.2	13.0
Cc1ccnc(COc2ccc(Cc3cc(-c4ccc(N)nc4N)on3)cc2)c1 [Example 24, 3-(3-(4-(4-Methyl-pyridin-2-ylmethoxy)-benzyl)-isoxazol-5-yl)-pyridin-2,6-diamine]	0.39 (≈ 1.01 µM)	0.78 (≈ 2.01 µM)	7.4	14.0
Nc1ccc(-c2cc(Cc3ccc(OCc4ccccc4)nc3)no2)c(N)n1 [Example 25, 3-(3-(6-benzyloxy-pyridin-3-ylmethyl)-isoxazol-5-yl)-pyridine-2,6-diamine]	0.2 (≈ 0.536 µM)	0.2 (≈ 0.536 µM)	12.2	–
COCc1ccc(-c2cc(Cc3ccc(COc4ccccn4)cc3)no2)c(N)n1 [Example 27]	0.2 (≈ 0.497 µM)	0.39 (≈ 0.969 µM)	3.0	10.0
Nc1ncccc1-c1cc(Cc2ccc(OCc3ccccc3)cc2)on1 [Example 29, 3-(5-(4-Benzyloxy-benzyl)-isoxazol-3-yl)-pyridin-2-ylamine]	0.39 (≈ 1.09 µM)	0.2 (≈ 0.56 µM)	–	11.4
Nc1ncccc1-c1cc(Cc2ccc(COc3ccccn3)cc2)on1 [Example 30, 3-(5-(4-(Pyridin-2-yloxymethyl)-benzyl)-isoxazol-3-yl)-pyridin-2-ylamine]	0.1 (≈ 0.279 µM)	0.2 (≈ 0.558 µM)	13.0	–
Nc1ncccc1-c1cnn(Cc2ccc(OCc3ccccc3)cc2)c1 [Example 31, 3-(1-(4-Benzyloxy-benzyl)-1H-pyrazol-4-yl)-pyridin-2-ylamine]	0.2 (≈ 0.561 µM)	0.39 (≈ 1.09 µM)	–	13.0
Nc1ncccc1-c1cnn(Cc2ccc(COc3ccccn3)cc2)c1 [Example 32, 3-(1-(4-(Pyridin-2-yloxymethyl)-benzyl)-1H-pyrazol-4-yl)-pyridin-2-ylamine]	0.2 (≈ 0.56 µM)	0.78 (≈ 2.18 µM)	10.2	12.2
CCCCOCc1ccc(Cn2cc(-c3cccnc3N)cn2)cc1 [Example 33, 3-(1-(4-Butoxymethyl-benzyl)-1H-pyrazol-4-yl)-pyridin-2-ylamine]	0.39 (≈ 1.16 µM)	0.78 (≈ 2.32 µM)	2.4	8.4
Nc1ccc(-c2cnn(Cc3ccc(OCc4ccccc4)cc3)c2)c(N)n1 [Example 36, 3-(1-(4-Benzyloxy-benzyl)-1H-pyrazol-4-yl)-pyridin-2,6-diamine]	0.39 (≈ 1.05 µM)	0.78 (≈ 2.1 µM)	9.4	14.0
Nc1ccc(-c2cnn(Cc3ccc(COc4ccccn4)cc3)c2)c(N)n1 [Example 37, 3-(1-(4-(Pyridin-2-yloxymethyl)-benzyl)-1H-pyrazol-4-yl)-pyridin-2,6-diamine]	0.39 (≈ 1.05 µM)	1.56 (≈ 4.19 µM)	5.4	14.0
CCCCOCc1ccc(Cn2cc(-c3ccc(N)nc3N)cn2)cc1 [Example 38, 3-(1-(4-Butoxymethyl-benzyl)-1H-pyrazol-4-yl)-pyridin-2,6-diamine]	0.78 (≈ 2.22 µM)	1.56 (≈ 4.44 µM)	4.8	10.0
Nc1ccc(-c2cc(Cc3ccc(Oc4ccccc4)nc3)no2)c(N)n1 [Example 40, 3-(3-(6-Phenoxy-pyridin-3-ylmethyl)-isoxazol-5-yl)-pyridin-2,6-diamine]	0.39 (≈ 1.09 µM)	0.39 (≈ 1.09 µM)	11.6	14.0
Nc1ncccc1-c1cc(Cc2ccc(OCc3ccc(F)cn3)cc2)no1 [Example 41, 3-(3-(4-(5-Fluoro-pyridin-2-ylmethoxy)-benzyl)-isoxazol-5-yl)-pyridin-2-ylamine]	0.39 (≈ 1.04 µM)	0.2 (≈ 0.531 µM)	11.4	11.8
Cc1ccnc(OCc2ccc(Cc3cc(-c4cccnc4N)on3)cc2)c1 [Example 43, 3-(3-(4-(4-Methyl-pyridin-2-yloxymethyl)-benzyl)-isoxazol-5-yl)-pyridin-2-ylamine]	0.2 (≈ 0.537 µM)	0.39 (≈ 1.05 µM)	10.6	14.0
Nc1ncccc1-c1cc(Cc2ccc(OCc3cccc(F)n3)cc2)no1 [Example 45, 3-(3-(4-(6-Fluoro-pyridin-2-ylmethoxy)-benzyl)-isoxazol-5-yl)-pyridin-2-ylamine]	0.39 (≈ 1.04 µM)	0.2 (≈ 0.531 µM)	10.6	10.8
Nc1ncccc1-c1cc(Cc2ccc(OCc3cc(Cl)ccn3)cc2)no1 [Example 51, 3-(3-(4-(4-Chloro-pyridin-2-ylmethoxy)-benzyl)-isoxazol-5-yl)-pyridin-2-ylamine]	0.1 (≈ 0.255 µM)	0.39 (≈ 0.993 µM)	13.5	14.0
Nc1ncccc1-c1cc(Cc2ccc(OCc3cccc(Cl)n3)cc2)no1 [Example 52, 3-(3-(4-(6-Chloro-pyridin-2-ylmethoxy)-benzyl)-isoxazol-5-yl)-pyridin-2-ylamine]	0.39 (≈ 0.993 µM)	0.39 (≈ 0.993 µM)	10.6	13.4
